Among the data in patent publication US12338262B2 (Forward Therapeutics, Inc., priority 2022, dated 2025) are IC50 values, retold here.

Structures are written as SMILES.

For the assay, the target named is TNF-α (Homo sapiens, UniProt P01375). In words: TNF-α Induced HEK Blue Cellular Assay. The conditions noted are these: HEK Blue TNFα reporter cells, TNF-α 100 pg/ml, 24 hrs at 37° C., secreted alkaline phosphatase (QUANTI-Blue, 620 nm). In kind it is cell-based. The method in brief: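 HEK Blue TNFα reporter cells (10,000/well, DMEM + 10% FBS) treated with compound ([…] to 0.5 nM final) and stimulated with 100 pg/ml TNF-α for 24 h at 37 °C. Secreted alkaline phosphatase read with QUANTI-Blue at 620 nm; IC50 by 4-parameter logistic fit after background correction to stimulated/unstimulated DMSO controls.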
TNF-α, sequence (P01375 77-233 limits assumed): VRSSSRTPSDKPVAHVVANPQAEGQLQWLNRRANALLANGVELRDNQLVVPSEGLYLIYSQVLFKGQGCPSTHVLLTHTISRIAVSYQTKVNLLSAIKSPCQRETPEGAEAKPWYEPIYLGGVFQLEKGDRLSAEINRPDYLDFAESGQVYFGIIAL
Compound `Cc1nc2cc(F)c(-c3ccc(P4(=O)CCOCC4)nc3)nc2c(N[C@H](C)c2cc(C#N)ccc2F)c1Cl` [Example 141, 3-[(1R)-1-({3-chloro-7-fluoro-2-methyl-6-[6-(4-oxo-1,4lambda5-oxaphosphinan-4-yl)pyridin-3-yl]-1,5-naphthyridin-4-yl}amino)ethyl]-4-fluorobenzonitrile] yielded an IC50 of 1 to 10 µM.
Compound `Cc1nc2cc(F)c(-c3ccc(P(C)(C)=O)nc3)nc2c(N[C@@H](CO)c2cc(C#N)ccc2F)c1Cl` (single isomer, unassigned) [Example 64] showed an IC50 of 10 to 30 µM.
`Cc1nc2cc(F)c(-c3ccc(OCP(C)(C)=O)nc3)cc2c(N[C@H](C)c2ccccc2F)c1Cl` [Example 105, 3-chloro-6-{6-[(dimethylphosphoryl)methoxy]pyridin-3-yl}-7-fluoro-N-[(1R)-1-(2-fluorophenyl)ethyl]-2-methylquinolin-4-amine] had an IC50 not above 1 µM.
On to `Cc1nc2cc(F)c(-c3ccc(P(C)(C)=O)nc3)nc2c(N[C@H](c2ccccc2F)C(F)F)c1Cl` [Example 26, (R)-(5-(7-chloro-8-((2,2-difluoro-1-(2-fluorophenyl)ethyl)amino)-3-fluoro-6-methyl-1,5-naphthyridin-2-yl)pyridin-2-yl)dimethylphosphine oxide], for which the IC50 is 1 to 10 µM.
Turning to `CC[C@H](Nc1c(Cl)c(C)nc2cc(F)c(-c3cnc(P(C)(C)=O)nc3)nc12)c1ccccc1F` [Example 17, 3-chloro-6-[2-(dimethylphosphoryl)pyrimidin-5-yl]-7-fluoro-N-[(1S)-1-(2-fluorophenyl)propyl]-2-methyl-1,5-naphthyridin-4-amine], the IC50 was not above 1 µM.
In the case of `Cc1nc2cc(F)c(-c3cnc(P(C)(C)=O)nc3)nc2c(N[C@H](C)c2cccc(C#N)c2)c1Cl` [Example 46, 3-[(1R)-1-({3-chloro-6-[2-(dimethylphosphoryl)pyrimidin-5-yl]-7-fluoro-2-methyl-1,5-naphthyridin-4-yl}amino)ethyl]benzonitrile], the IC50 is not above 0.1 µM.
Consider `CC[C@@H](Nc1c(Cl)c(C)nc2cc(F)c(-c3ccc(P(C)(C)=O)nc3)c(F)c12)c1ncccc1F` [Example 74, (R)-(5-(3-chloro-5,7-difluoro-4-((1-(3-fluoropyridin-2-yl)propyl)amino)-2-methylquinolin-6-yl)pyridin-2-yl)dimethylphosphine oxide], for which the IC50 is not above 1 µM.
Compound `CC[C@@H](Nc1c(Cl)c(C)nc2cc(F)c(-c3ccc(P(C)(C)=O)c(F)c3)nc12)c1ccccc1F` [Example 24, 3-chloro-6-[4-(dimethylphosphoryl)-3-fluorophenyl]-7-fluoro-N-[(1R)-1-(2-fluorophenyl)propyl]-2-methyl-1,5-naphthyridin-4-amine] came in with an IC50 not above 1 µM.

A word on the IC50: it is the concentration that gives 50% inhibition. Higher therefore signals lower potency.
